Data as given in patent US9902940B2, “Human blood-brain barrier endothelial cells derived from pluripotent stem cells and blood-brain barrier model thereof” (Wisconsin Alumni Research Foundation, priority 2010, dated 2018).
Read-outs that look alike come from different tables or passages of the source.

Tests used:
[1] = cited from earlier work
IMR90-4-derived BMECs = assay: Permeability coefficients (Pe) of radiolabeled small molecules across the IMR90-4-derived BMEC/astrocyte co-culture model
Protocol: For co-culture experiments, primary astrocytes were isolated as previously described^37. Briefly, cortices were isolated from P6 neonatal Sprague Dawley rats (Harlan) and minced in Hank's Balanced Salt Solution (HBSS; Sigma). […] After trituration and filtration, cells were cultured on collagen-I-coated flasks (100 μg/mL; Sigma) in DMEM containing 10% qualified heat-inactivated fetal bovine serum (FBS; Invitrogen), 10% heat-inactivated horse serum (Sigma), 2 mM L-glutamine, and 1% antibiotic-antimycotic (Invitrogen). Human embryonic kidney 293 cells (HEK cells; ATCC) were cultured in DMEM supplemented with 10% FBS, 1 mM sodium pyruvate (Sigma), 2 g/L sodium bicarbonate (Fisher Scientific), 30 mM HEPES (Sigma), and 1% antibiotic-antimycotic, and used as a non-neural cell control. Co-culture of hPSC-derived BMECs was initiated with primary rat astrocytes or HEK cells in either EC medium (called 1% PDS medium in Table 2) or 70:30 (v/v) DMEM/F12 (Sigma/Invitrogen) supplemented with 1% antibiotic-antimycotic, 2% B27 (Invitrogen), and 10% FBS^37 (called 10% FBS medium in Table 2). Trans-endothelial electrical resistance (TEER) measurements were performed using an EVOM voltohmmeter (World Precision Instruments) at the start of co-culture and every 24 h thereafter. The resistance value (Ω×cm^2) of an empty filter coated with collagen/fibronectin was subtracted from each measurement. Permeability coefficients (Pe) were evaluated after 24 h of co-culture as previously described^34. For sodium fluorescein Pe measurements, 10% FBS medium containing 1 μM sodium fluorescein solution was added to the apical chamber of the […]™ filter. 200 μL aliquots were extracted from the basolateral chamber (which contains 1.5 mL of medium) every 30 min and replaced by fresh medium. Using a fluorescent plate reader and calibration curve, the flux of fluorescein to the bottom chamber and permeability coefficients were calculated as described by Calabria et al^34. To determine the Pe of radiolabeled ligands, compounds were diluted to 0.4 μCi in transport buffer (distilled water with 0.12 M NaCl, 25 mM NaHCO3, 3 mM KCl, 2 mM MgSO4, 2 mM CaCl2, 0.4 mM K2HPO4, 1 mM HEPES, and 0.1% bovine serum albumin [BSA; Sigma]) and 0.5 mL were added to the upper chamber. 200 μL aliquots were extracted from the basolateral chamber every 15 min and replaced by fresh buffer. […] [^3H]-vincristine was purchased from American Radiolabeled Chemicals, while all other radiolabeled compounds were acquired from PerkinElmer. All compound incubations were conducted at 37° C., and the radioactive permeability experiments were carried out on a rotator. Triplicate filters were used for all permeability studies and the values listed throughout the Results section are representative of a minimum of two biological replicates.

[2] = test system: BBB influx and efflux transporters (GLUT-1, MDR1, BCRP, MRP family, organic cation transporters); settings: cited from earlier work
[3] = test system: p-glycoprotein, BCRP and MRP family efflux transporters; assay: Apical-to-basolateral transport of doxorubicin with efflux inhibitors, IMR90-4-derived BMEC/astrocyte model; assay type: in vitro ADME, human; settings: astrocyte co-culture; 60 min; normalized to no inhibitor
[4] = test system: p-glycoprotein, BCRP, and the MRP family; assay: Doxorubicin accumulation assay with efflux inhibitors in monocultured IMR90-4-derived BMECs; assay type: in vitro ADME, human; settings: monoculture; doxorubicin 0.25 μCi, 1 h; 5 μM cyclosporin A, 1 μM Ko143 or 10 μM MK 571
p-glycoprotein = p-glycoprotein (Homo sapiens, UniProt P08183)
Chain of p-glycoprotein (P08183 whole entry): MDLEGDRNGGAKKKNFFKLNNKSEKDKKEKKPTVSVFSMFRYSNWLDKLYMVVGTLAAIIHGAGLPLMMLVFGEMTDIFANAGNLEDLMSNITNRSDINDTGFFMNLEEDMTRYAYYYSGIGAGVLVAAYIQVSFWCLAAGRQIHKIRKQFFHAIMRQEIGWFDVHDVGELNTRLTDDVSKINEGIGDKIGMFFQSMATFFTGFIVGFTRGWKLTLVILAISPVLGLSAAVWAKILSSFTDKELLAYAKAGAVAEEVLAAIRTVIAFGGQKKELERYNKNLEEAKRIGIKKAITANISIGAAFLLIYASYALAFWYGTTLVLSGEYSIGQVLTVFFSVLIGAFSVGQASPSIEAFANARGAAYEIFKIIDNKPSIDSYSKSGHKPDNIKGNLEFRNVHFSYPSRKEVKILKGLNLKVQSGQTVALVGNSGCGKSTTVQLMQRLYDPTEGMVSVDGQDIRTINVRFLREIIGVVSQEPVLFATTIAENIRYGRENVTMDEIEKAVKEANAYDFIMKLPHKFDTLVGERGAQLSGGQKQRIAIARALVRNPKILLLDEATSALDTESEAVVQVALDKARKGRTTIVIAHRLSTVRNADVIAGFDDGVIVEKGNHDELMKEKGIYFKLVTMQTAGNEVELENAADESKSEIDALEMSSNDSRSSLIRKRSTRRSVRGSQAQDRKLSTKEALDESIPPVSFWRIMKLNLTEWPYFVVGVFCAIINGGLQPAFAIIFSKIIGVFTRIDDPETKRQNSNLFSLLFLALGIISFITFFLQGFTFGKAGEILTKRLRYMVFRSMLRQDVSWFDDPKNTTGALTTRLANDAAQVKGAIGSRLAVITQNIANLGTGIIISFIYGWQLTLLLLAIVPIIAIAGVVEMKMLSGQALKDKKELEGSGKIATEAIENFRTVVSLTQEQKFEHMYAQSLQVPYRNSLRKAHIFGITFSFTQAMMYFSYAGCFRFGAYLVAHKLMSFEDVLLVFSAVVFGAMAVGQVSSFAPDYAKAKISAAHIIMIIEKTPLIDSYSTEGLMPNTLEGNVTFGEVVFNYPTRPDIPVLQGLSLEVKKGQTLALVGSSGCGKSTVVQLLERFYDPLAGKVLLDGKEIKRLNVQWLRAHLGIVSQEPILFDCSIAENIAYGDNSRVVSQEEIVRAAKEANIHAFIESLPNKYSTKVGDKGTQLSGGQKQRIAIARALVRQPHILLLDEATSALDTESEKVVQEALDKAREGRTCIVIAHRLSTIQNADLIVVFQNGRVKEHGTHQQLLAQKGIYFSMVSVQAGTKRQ

[5] = test system: differentiating IMR90-4 cultures; assay: Claudin-5 and occludin localization and western blots in differentiating cultures under XAV-939; assay type: cell-based, human; settings: data not shown
Protocol: Cells were washed once with PBS and fixed in either 2% paraformaldehyde or 100% ice-cold methanol for 15 min. The cells were then blocked with 40% goat serum in PBS (40% PBSG). If probing for an intracellular antigen, 0.1% TX-100 was present in the 40% PBSG. The cells were then incubated in 40% PBSG containing primary antibody (see Table 5 for list) for one h at room temperature. After three washes in PBS, cells were incubated in 40% PBSG containing goat anti-rabbit Texas Red (1:500; Invitrogen) or goat anti-mouse Alexa 488 (1:500; Invitrogen). Cell nuclei were labeled with 300 nM 4′,6-Diamidino-2-pheny-lindoldihydrochloride (DAPI) for 10 min. Cells were washed three times in PBS and visualized. In situ hybridization for detection of WNT7A and WNT7B transcripts was conducted similar to the method described by Planell-Saguer et al^58. Briefly, cells were washed once with PBS and fixed in 2% paraformaldehyde for 10 min, followed by permeabilization in PBS containing 0.1% TX-100 for 5 min. Pre-hybridization was performed with a water-based solution containing 3% BSA and 4× saline-sodium citrate buffer (SSC; Fisher), followed by a 1 h hybridization in 4×SSC and 10% dextran sulfate (Fisher) at room temperature. Digoxigenin-labeled locked nucleic acid probes were purchased from Exiqon (sequences found in Table 6). […]

Wnt/β-catenin pathway = assay: Quantitative RT-PCR of genes elevated during BMEC specification under Wnt inhibition; assay type: cell-based, human; settings: IMR90-4, 7 days UM; SFRP2 250 then 750 ng/mL, or 10 μM XAV-939 from day 2, versus untreated or DMSO
Protocol: Cells were differentiated as previously described. […] For RNA collection, cells were washed once with PBS and dissociated with trypsin or accutase. Total RNA was extracted using an RNeasy Mini Kit (Qiagen) according to the manufacturer's instructions. cDNA was generated from 1 μg of RNA using Omniscript reverse transcriptase (Qiagen) and oligo-dT primers (Invitrogen). Quantitative PCR (qPCR) was then performed using 1 μL of cDNA and iQ SYBR Green Supermix (Bio-Rad) on an iCycler (Bio-Rad). RT-PCR was also performed using GoTaq Green Master Mix (Promega). Primer sequences are supplied in Table 8. Relative expression was quantified using the comparative cycle threshold (CT) method, normalizing to glyceraldehyde-3-phosphate dehydrogenase (GAPDH) expression. Fold difference was calculated as x^−ΔΔCT, where x refers to primer efficiency calculated according LinRegPCR version 12.3^59. Transcript amplification was analyzed by 2% agarose gel electrophoresis of the qPCR or RT-PCR products.

[6] = test system: differentiating IMR90-4 iPSC cultures (BMEC specification); assay: Flow cytometry of PECAM-1/GLUT-1 expression in differentiating IMR90-4 cultures under Wnt inhibition; assay type: cell-based, human
Protocol: Cells were harvested via Accutase (Invitrogen) incubation for 2-3 min, fixed in 100% ice-cold methanol for 20 min, and blocked with 40% PBSG for 20 min at room temperature. Primary antibody labeling (Table 5) was performed in 10% PBSG for 1 h at room temperature. IgG controls were used at the same concentration. After a wash with 5% FBS in PBS, secondary antibodies (goat anti-rabbit Alexa 488 and goat anti-mouse Alexa 647; 1:200) in 10% PBSG were added to each sample for 30 min at room temperature. After two washes with 5% FBS in PBS, the samples were analyzed on a FACScaliber flow cytometer. PECAM-1^+ events were quantified using a PECAM-1/forward scatter dot plot referenced to a rabbit IgG control. GLUT-1^+ events were quantified using a GLUT-1/forward scatter dot plot referenced to a 4D UM culture that lacked BMECs. Events that were found in both of these positive gates were classified as PECAM-1^+/GLUT-1^+ cells. βIII tubulin and nestin expression were quantified against rabbit and mouse IgG controls, respectively. Data are presented as two-dimensional dot plots with color codes to indicate events within each gate.

[7] = Sodium fluorescein permeability, DF19-9-11T-derived BMECs; assay type: in vitro ADME; settings: human, 1 μM sodium fluorescein, read-out: fluorescein permeability coefficient (Pe), average (converted)
Protocol: (§1) Permeability coefficients were evaluated after 24 hours of co-culture as previously described. […] Using a fluorescent plate reader and calibration curve, the rate of fluorescene influx to the bottom chamber was calculated, and final values for permeability coefficients were then calculated according to Calabria et al.^34.

[8] = Sodium fluorescein permeability, IMR90-4-derived BMEC/astrocyte co-culture; assay type: in vitro ADME; settings: human; IMR90-4-derived BMECs, astrocyte co-culture, 1 μM sodium fluorescein; read-out: fluorescein permeability coefficient (Pe) (converted)
Protocol: as §1

primary human BMECs = primary human BMECs (ref. 56); cited from earlier work
hCMEC/D3 line = hCMEC/D3 line (ref. 9); cited from earlier work
[9] = IMR90-4-derived BMEC/astrocyte co-culture model
[10] = IMR90-4-derived BMECs co-cultured with rat astrocytes, radiolabeled compound, apical to basolateral over 1 h, 37° C., mean ± SD of biological replicates
[11] = efflux transporter substrates (Table 6)

For `COc1cc2c(c(OC)c1OC)-c1ccc(OC)c(=O)cc1[C@@H](NC(C)=O)CC2` [Colchicine], the “Octanol/water partition coefficient (logD)” value [1] is listed as 1.03, the Pe value (IMR90-4-derived BMECs; [9]) is listed as 1.53 ×10⁻⁶ cm/s and the “Average Pe” value (IMR90-4-derived BMECs; [10]) is listed as 0.09 ± 0.1 10^−3 cm/min.

In the case of `CN1C(=O)CN=C(c2ccccc2)c2cc(Cl)ccc21` [Diazepam], the Pe value (IMR90-4-derived BMECs; [9]) is reported as 18.5 ×10⁻⁶ cm/s and the “Average Pe” value (IMR90-4-derived BMECs; [10]) is reported as 1.11 ± 0.45 10^−3 cm/min.

In the case of `COc1cccc2c1C(=O)c1c(O)c3c(c(O)c1C2=O)C[C@@](O)(C(=O)CO)C[C@@H]3O[C@H]1C[C@H](N)[C@H](O)[C@H](C)O1` [Doxorubicin], the Transporter recognition [2, 11] is listed as “MDR1, BCRP, MRP1, MRP2”.

In the case of `COc1ccc2c3c([nH]c2c1)[C@H](CC(C)C)N1C(=O)[C@H](CCC(=O)OC(C)(C)C)NC(=O)[C@@H]1C3` [Ko143], the “transport of doxorubicin from the apical to basolateral chamber in the presence of inhibitor” value [3] is listed as 1.3 fold, the Transporter recognition ([2]; efflux transporter inhibitors (Table 6)) is listed as “BCRP” and the “accumulation of doxorubicin in the presence of inhibitor” value [4] is listed as “increased”.

In the case of `CN(C)C(=O)CCSC(SCCC(=O)O)c1cccc(/C=C/c2ccc3ccc(Cl)cc3n2)c1` (stereo not drawn) [MK 571], the “transport of rhodamine 123 from the apical to basolateral chamber in the presence of inhibitor” value (p-glycoprotein) is reported as “not”.

For `COc1cc2nc(N3CCN(C(=O)c4ccco4)CC3)nc(N)c2cc1OC` [Prazosin], the “Octanol/water partition coefficient (logD)” value [1] is listed as 2.16, the Pe value (IMR90-4-derived BMECs; [9]) is listed as 4.77 ×10⁻⁶ cm/s and the “Average Pe” value (IMR90-4-derived BMECs; [10]) is listed as 0.29 ± 0.04 10^−3 cm/min.

For `OC[C@H]1O[C@@](CO)(O[C@H]2O[C@H](CO)[C@@H](O)[C@H](O)[C@H]2O)[C@@H](O)[C@@H]1O` [Sucrose], the “Octanol/water partition coefficient (logD)” value [1] is given as −3.3.

For `CC[C@]1(O)C[C@H]2CN(CCc3c([nH]c4ccccc34)[C@@](C(=O)OC)(c3cc4c(cc3OC)N(C=O)[C@H]3[C@@](O)(C(=O)OC)[C@H](OC(C)=O)[C@]5(CC)C=CCN6CC[C@]43[C@@H]65)C2)C1` [Vincristine], the “Octanol/water partition coefficient (logD)” value [1] is listed as 2.8, the “Average Pe” value (IMR90-4-derived BMECs; human, 1 h) is listed as 0.06 ± 0.02 10^−3 cm/min and the Pe value (IMR90-4-derived BMECs; human, 1 h) is listed as 1.03 ×10⁻⁶ cm/s.

In the case of `Oc1nc(-c2ccc(C(F)(F)F)cc2)nc2c1CSCC2` [XAV-939], the “claudin-5 or occludin localization” value ([5]; XAV-939 treatment) is reported as “did not alter”, the “amounts of claudin-5 and occludin by western blots” value ([5]; regardless of XAV-939 treatment) is reported as “equal amounts” and the “expression of LEF1, FST, STRA6, FZD6, SLC2A1 and ABCB1 by quantitative RT-PCR” value (Wnt/β-catenin pathway) is reported as “statistically significant downregulation”. The “Mean per cell expression of GLUT-1” value ([6]; IMR90-4, 6D UM 2D EC, 10 μM XAV-939, DMSO control 285) was 272 A.U, the “% GLUT-1^+/PECAM-1^+” value ([6]; IMR90-4, 6D UM 2D EC, 10 μM XAV-939 from day 2 of UM, DMSO control 64%) was 46% and the “% PECAM-1^+ overall” value ([6]; IMR90-4, 6D UM 2D EC, 10 μM XAV-939 from day 2 of UM, DMSO control 68%) was 61%. For the same molecule, the “net reduction in the overall number of PECAM-1^+/GLUT-1^+ BMECs” value ([6]; IMR90-4, XAV-939 versus DMSO control) was 20%.

In the case of `O=C1OC2(c3ccc(O)cc3Oc3cc(O)ccc32)c2ccccc21` [sodium fluorescein], the Papp A→B at 1 μM [7] is given as 0.085 ×10⁻⁶ cm/s, the Papp A→B at 1 μM [8] is given as 0.0367 ×10⁻⁶ cm/s and the “reported sodium fluorescein Pe” value (primary human BMECs) is given as 53.3 ×10⁻⁶ cm/s. For the same molecule, the “reported sodium fluorescein Pe” value (hCMEC/D3 line) was 56.7 ×10⁻⁶ cm/s.

In the case of Inulin, the “Octanol/water partition coefficient (logD)” value [1] is listed as −0.25, the Transporter recognition ([2]; compounds of the permeability screen (Table 5)) is listed as “None” and the “Average Pe” value (IMR90-4-derived BMECs; [10]) is listed as 0.029 ± 0.015 10^−3 cm/min.

In the case of Rhodamine 123, the Transporter recognition [2, 11] is listed as “MDR1”.

B1: SFRP2: mouse secreted protein that binds to soluble Wnts and prevents upstream activation of the Wnt pathway (protein, UniProt P97299 25-295, looked up)
Secreted frizzled-related …: LFLFGQPDFSYKRSNCKPIPANLQLCHGIEYQNMRLPNLLGHETMKEVLEQAGAWIPLVMKQCHPDTKKFLCSLFAPVCLDDLDETIQPCHSLCVQVKDRCAPVMSAFGFPWPDMLECDRFPQDNDLCIPLASSDHLLPATEEAPKVCEACKTKNEDDNDIMETLCKNDFALKIKVKEITYINRDTKIILETKSKTIYKLNGVSERDLKKSVLWLKDSLQCTCEEMNDINAPYLVMGQKQGGELVITSVKRWQKGQREFKRISRSIRKLQC
With B1 the “expression of LEF1, FST, STRA6, FZD6, SLC2A1 and ABCB1 by quantitative RT-PCR” value (Wnt/β-catenin pathway) was “statistically significant downregulation”.
